{"source": "patent US12247087B2", "about": "“Biological active peptide for improving enzyme activity of ACE2 and application thereof” (priority 2023, dated 2025)", "key": {"ACE2": {"molecular_target": "T1, ACE2 (Mus musculus, UniProt Q8R0I0)", "T1 construct": "taking 50 mg mice liver tissue, adding 500 μL lysis solution to perform the homogenization treatment; from tissue; host or cells: mouse liver tissue homogenate supernatant", "T1 sequence (Q8R0I0 18-805)": "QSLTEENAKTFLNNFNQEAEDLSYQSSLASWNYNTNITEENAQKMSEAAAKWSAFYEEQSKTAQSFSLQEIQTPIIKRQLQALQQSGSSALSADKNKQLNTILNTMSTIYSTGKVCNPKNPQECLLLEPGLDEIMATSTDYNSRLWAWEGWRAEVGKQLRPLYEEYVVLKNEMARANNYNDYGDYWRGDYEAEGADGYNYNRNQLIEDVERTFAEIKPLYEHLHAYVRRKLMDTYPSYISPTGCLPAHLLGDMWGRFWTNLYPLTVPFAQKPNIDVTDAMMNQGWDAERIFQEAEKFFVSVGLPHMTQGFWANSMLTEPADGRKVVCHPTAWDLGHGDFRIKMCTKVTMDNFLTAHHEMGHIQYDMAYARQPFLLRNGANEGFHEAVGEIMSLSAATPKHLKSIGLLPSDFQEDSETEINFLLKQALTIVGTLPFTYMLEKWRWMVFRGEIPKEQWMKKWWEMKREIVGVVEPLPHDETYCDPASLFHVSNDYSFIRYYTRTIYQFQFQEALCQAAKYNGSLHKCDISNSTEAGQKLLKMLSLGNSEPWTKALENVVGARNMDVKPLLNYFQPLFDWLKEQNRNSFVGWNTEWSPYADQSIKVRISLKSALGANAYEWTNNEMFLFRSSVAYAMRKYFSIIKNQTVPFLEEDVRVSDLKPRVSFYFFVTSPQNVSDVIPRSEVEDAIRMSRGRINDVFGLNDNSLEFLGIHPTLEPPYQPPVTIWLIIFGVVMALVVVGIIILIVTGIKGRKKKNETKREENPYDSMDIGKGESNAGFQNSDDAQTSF", "test": "ACE2 active fluorescence detection kit, influence of SCOL polypeptide on ACE2 enzyme activity in mice liver tissue supernatant", "type": "biochemical", "method": "Detection was performed by using Biyuntian ACE2 active fluorescence detection kit; the principle was as follows. […] When the substrate was fully cut by the ACE2, two ends of the polypeptide were separated, two fluorophores were separated, which led to detection of the fluorescence, such that the enzyme activity of the ACE2 protein enzyme can be sensitively detected by the fluorescence detection.\n(1) preparation of samples: taking 50 mg mice liver tissue, adding 500 μL lysis solution to perform the homogenization treatment, centrifuging at 4° C. under 12000×g for 5 min, taking the supernatant for next step; […]\n(3) adding 2 μL substrates in the 96 hole plate, individually adding 2.2 μL with concentration of 0.004, 0.008, 0.012, 0.016, 0.02 μg/μL of the total concentration in the PCR tubes, adding 8.8 μL supernatant sample in step (1), adding 96.8 μL buffer; and adding 11 μL lysis solution and 96.8 μL buffer in a blank control, mixing, sucking above 98 μL solution by a volley gun and adding to the 96 hole plate with substrates. Performing fluorescence detection by a fluorescence microplate reader after mixing, in particular, the setting temperature was at 37° C., the excitation wavelength was 325 nm, and the emission wavelength was 393 nm. […]"}, "[1]": {"molecular_target": "T2, novel coronavirus S protein-ACE2 protein binding (Homo sapiens, UniProt Q9BYF1)", "T2 construct": "purchased RayBio", "T2 sequence (Q9BYF1 18-740)": "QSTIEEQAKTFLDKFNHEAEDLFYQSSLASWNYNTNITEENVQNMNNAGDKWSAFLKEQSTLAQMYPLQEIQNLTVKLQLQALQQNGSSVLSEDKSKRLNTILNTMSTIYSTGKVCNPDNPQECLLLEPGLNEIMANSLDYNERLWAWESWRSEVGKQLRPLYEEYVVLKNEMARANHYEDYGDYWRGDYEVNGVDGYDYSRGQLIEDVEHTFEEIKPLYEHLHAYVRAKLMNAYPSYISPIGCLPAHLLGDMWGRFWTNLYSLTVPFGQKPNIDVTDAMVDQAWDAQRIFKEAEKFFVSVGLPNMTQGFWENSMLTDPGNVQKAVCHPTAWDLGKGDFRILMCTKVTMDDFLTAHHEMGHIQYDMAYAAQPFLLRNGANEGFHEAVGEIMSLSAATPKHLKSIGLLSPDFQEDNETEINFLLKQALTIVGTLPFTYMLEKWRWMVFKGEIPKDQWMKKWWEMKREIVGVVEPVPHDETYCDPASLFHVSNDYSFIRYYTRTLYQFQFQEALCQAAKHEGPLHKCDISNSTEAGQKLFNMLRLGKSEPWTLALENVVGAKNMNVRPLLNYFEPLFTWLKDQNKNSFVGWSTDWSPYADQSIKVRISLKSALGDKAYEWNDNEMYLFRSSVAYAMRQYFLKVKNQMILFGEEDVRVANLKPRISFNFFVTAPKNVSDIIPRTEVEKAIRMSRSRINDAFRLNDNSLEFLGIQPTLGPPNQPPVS", "test": "biochemical"}}, "note": "Peptide text beside a SMILES is read from it."}
{"smiles": "CC[C@H](C)[C@H](N)C(=O)N1CCC[C@H]1C(=O)N[C@@H](CO)C(=O)N[C@H](C(=O)N[C@H](C(=O)N1CCC[C@H]1C(=O)N[C@@H](Cc1ccccc1)C(=O)N1CCC[C@H]1C(=O)N[C@@H](CO)C(=O)N[C@H](C(=O)N[C@H](C(=O)N[C@H](C(=O)N[C@@H](C)C(=O)N[C@H](C(=O)N[C@H](C(=O)N[C@H](C(=O)N[C@@H](CCSC)C(=O)O)[C@@H](C)O)[C@@H](C)O)[C@@H](C)O)C(C)C)[C@@H](C)O)[C@@H](C)O)[C@@H](C)O)[C@@H](C)O", "note": "[SCOL peptide, Ile-Pro-Ser-Thr-Thr-Pro-Phe-Pro-Ser-Thr-Thr-Val-Ala-Thr-Thr-Thr-Met] (H-IPSTTPFPSTTVATTTM-OH; N-terminus and C-terminus assumed)", "values": [{"measurement": "activity of the ACE2 in the samples with the increase of the SCOL polypeptide concentration", "setting": "ACE2; 0.004-0.02 μg/μL", "value": "increasing trend"}, {"measurement": "highest ACE2 activity relative to the initial activity", "setting": "ACE2; SCOL polypeptide concentration 0.02 μg/μL, 37° C.", "value": 3.76, "unit": "times"}, {"measurement": "effect on S protein-ACE2 binding compared with the control group", "setting": "[1]", "value": "inhibiting effect"}, {"measurement": "inhibition at 800 µg/mL", "setting": "[1]; read-out: highest inhibition rate of binding between S protein and ACE2", "value": 65, "unit": "%"}]}
